Experimental data reported in patent publication US20150079206A1, “TRIGONELLINE AS A MUSCLE STIMULANT” (DSM IP ASSETS B.V., priority 2009, published 2015).

Tested on: Female C57B1/6 mice
Assay: Maximal endurance test (treadmill) in non-trained animals
Type: in vivo, mouse
Method: To test the effect of trigonelline in non-trained animals, we performed a maximal endurance test after a treatment period of three weeks.
Female C57B1/6 mice were delivered at a weight of 18-20 g and acclimatized to the facilities for a period of one week. At the beginning of the study the animals were randomized into two groups (10 animals per group). All mice were housed separately and had access to feed and water ad libidum. Animals were treated for three weeks by gavage with trigonelline-hydrochloride at a daily dosage of 300 mg/kg/BW and the control group received vehicle.
For acclimatization, animals were placed on the treadmill for 5 minutes after two weeks. The maximal endurance test was performed two day before the section of the animals.

C[n+]1cccc(C(=O)[O-])c1 [Trigonelline, trigonelline monohydrate]
skeletal muscle mass in untrained mice (in words) (3 weeks of supplementation): no effect
endurance of untrained animals (in words) (3 weeks of supplementation, monohydrate): not influenced
wet weight of the gastrocnemius muscle, treated vs control (in words) (untrained mice, three weeks of supplementation, FIG. 4): equal in both groups
